This is an account of results in ChEMBL document CHEMBL3098062, “Influenza RNA-Dependent RNA Polymerase (RdRp) Inhibitors: Potential New Therapy for Influenza Treatment” (ACS Med Chem Lett, 2013).

The test system of one assay is Influenza B virus. The assay is described as follows: Antiviral activity against Influenza B virus Lee/40 infected in human bronchial/tracheal epithelial cells after 5 days by fluorescence assay. It counts as functional, organism-based. The conditions noted are these: B/Lee/1940, Epithelial cell, Trachea, 120 h.
Another assay deals with Influenza A virus. Kind of assay: Antiviral activity against Influenza A virus PC/1/73 infected in human bronchial/tracheal epithelial cells after 5 days by fluorescence assay. It counts as functional, organism-based. The conditions noted are these: PC/1/73, Epithelial cell, Trachea, 120 h.

As for `Nc1ncnn2c([C@@H]3O[C@H](CO)[C@@H](O)[C@H]3F)cnc12`, the 50% effective concentration (EC50) in the assay on Influenza B virus and in the assay with Influenza A virus was 0.9 µM each time.
As to `Nc1nc(F)nn2c([C@@H]3O[C@H](CO)[C@@H](O)[C@H]3F)cnc12`, the EC50 with Influenza B virus and in the assay with Influenza A virus was > 100 µM throughout.
As for `CCOc1nc(N)nn2c([C@@H]3O[C@H](CO)[C@@H](O)[C@H]3F)cnc12`, the half-maximal effective concentration (EC50) in the assay with Influenza B virus and with Influenza A virus was > 200 µM throughout.
On to `Nc1nc(N)c2ncc([C@@H]3O[C@H](CO)[C@@H](O)[C@H]3F)n2n1`, for which the concentration giving a half-maximal response (EC50) (commonly the concentration that produces a half-maximal response) was found to be 51 µM in the assay on Influenza B virus and 21 µM in the assay with Influenza A virus.
